From a melting point compilation (Tetko et al.; mined from patent text by program, amines drawn as free bases though some values may be those of a salt)

Structure (SMILES)	melting point
COc1cc(OC)nc(NC(=O)NS(=O)(=O)Nn2cccc2C(=O)N(C)C)n1	150 to 152 °C
COCCc1nc2c(N)nc3ccccc3c2n1CCCCNC(=O)c1c[nH]c2ccccc12	226 to 227 °C
CCN1CCC2(CC1)CN=C(c1cc3cccc(N(C)S(=O)(=O)c4cccs4)c3[nH]1)S2	215 °C
CC(C)c1ccc(C(=O)c2ccc(CC(=O)O)n2C)cc1	98 to 101 °C
CNC(=O)c1cnn(-c2ccccc2)c1Cl	182 to 183 °C
COc1cc(OC)c([N+](=O)[O-])c(C(=O)NC2CCN(C(c3ccccc3)c3ccccc3)CC2)c1	148 to 150 °C
Cc1nn(C(C)(C)C)c(N)c1C(N)=O	195 to 196 °C
Cn1ncc(C(=O)c2ccc(Cl)cc2Cl)c1OCc1ccc([N+](=O)[O-])cc1	116 to 118 °C
Cn1c(CC(=O)O)ccc1C(=O)c1cccc(Cl)c1	165 °C
CC(C)(C)c1cc(SCc2ccccc2C#N)cc(C(C)(C)C)c1O	79 to 82 °C
CC(=O)OC1OCC[C@@H]1NC(=O)[C@@H](N)CC(C)C (stereo not given in full)	75 to 80 °C
C[C@@H]1CN(c2ccc(-c3[nH]nc4c3C(=O)c3c(NC(=O)NN5CCOCC5)cccc3-4)cc2)C[C@H](C)N1	237 °C
COc1cc(C(=O)N2CCC(CCN3CCC(O)(c4nc5ccccc5n4Cc4ccc(F)cc4)CC3)(c3ccc(Cl)c(Cl)c3)C2)cc(OC)c1OC (stereo not given)	130 to 150 °C
CC(=O)Nc1cccc(CNC(=O)c2[nH]c3ccc(Cl)cc3c2S(=O)(=O)c2ccccc2)c1	249 to 250 °C
CCc1[nH]n(C2CCCC2)c2nc(-c3cccc(OC4CCCCN(C)C4)c3)nc(=O)c1-2 (stereo not given)	195 to 196 °C
CCN(CC)C(=O)N1CCc2ccc(S(=O)(=O)NC(=O)NC3CCCCC3)cc2CC1	168 to 169 °C
CN(CCCN)S(=O)(=O)CCC(F)(F)C(F)(F)C(F)(F)C(F)(F)C(F)(F)C(F)(F)F	135 °C
CCOCCn1c(N2CCCN(CCC3(c4ccccc4)CCN(C(=O)c4cc(NC(C)=O)ccc4OC)C3)CC2)nc2ccccc21 (stereo not given)	145 to 150 °C
CC(=Cc1ccccc1)c1ccc2c(c1)OCCC2(C)C	44 to 46 °C
COc1ccc2c(c1)Sc1c(cc(OC)c(OC)c1Br)N2	223 to 225 °C
COc1cccc(Nc2nc(NC(=O)C(C)(C)C)nc3[nH]c4ccccc4c23)c1	267 °C
CS(=O)c1c[nH]c2c(Sc3nc4cc(Cl)ccc4[nH]3)ccc([N+](=O)[O-])c12 (stereo not given)	243 to 246 °C
O=C(Oc1ccccc1)c1ccc(O)cc1O	135 to 137 °C
CCCCCCCCCCCCCCCCCCN=C=NCCCCCCCCCCCCCCCCCC	65 °C

Structure (SMILES)	melting point
Fc1cccc(F)c1-c1nnc(-c2ccccc2Br)nn1	168 °C
CCCCCCCCCCCCNC(=O)CC(Br)C(=O)O (stereo not given)	62 to 70 °C
N#Cc1c(N2CCNCC2)c2cc(F)ccc2n(Cc2ccccc2)c1=O	162 °C
CN1C(=O)C(C)(C)N=C(c2ccccc2F)c2cc([N+](=O)[O-])cc(Br)c21	228 °C
CCCCCCCCCCCCCCCC(=O)N[C@@H](CSC[C@H](O)[C@H](O)CO)C(=O)O	76 to 76.5 °C
Cc1cc(NC(=O)N(CC(C)C)CC(C)C)cc(C)c1S(=O)(=O)C[N+](=O)[O-]	153 to 155 °C
COc1cc(C(=O)CCC(=O)O)ccc1O	174 to 175 °C
CC(C)C1(C)NC(c2ccccc2C(F)(F)F)=NC1=O (stereo not given)	109 to 110 °C
COC(=O)c1ccc(C2(c3ccc4c(c3)C3(C)C5(C)CCC(C5)C3(C)O4)OCCO2)cc1 (stereo not given)	136 to 137 °C
N#Cc1ccccc1-c1cccc(Cc2ccc(OCc3ccccc3)cc2)c1Nn1cnnc1	171 to 173 °C
CC(C)n1nc(-c2ccccc2)c(-c2ccc(F)cc2)c1CBr	93 to 95 °C
CCCCOc1cc(C(=O)O)cc(N)c1C(=O)c1ccc(C)cc1	170 to 172 °C
CC(=O)OCCn1c(=O)sc2ccc(-c3nc4ccccn4c3C)cc21	113 to 115 °C
CC(C)(CCc1cc2nc(Cl)ccc2n1S(=O)(=O)c1ccc2ncsc2c1)C(=O)O	21 °C
Cc1sc2ccccc2c1Br	39 to 40 °C
O=C(CNc1ccc2[nH]c(=O)sc2c1)N1CCC(Cc2ccccc2)CC1	196 to 199 °C
COC(=O)Nc1cccc2c1C(=O)C1(O)c3ccc(C(C)C)cc3OC21O (stereo not given)	96 to 99 °C
O=C(CCCCCNC(=O)c1ccc2ccccc2c1)NO	96 to 98 °C
CCCC1=C(C#N)C(c2ccccc2Cl)c2c(n[nH]c2CC(OC)OC)N1 (stereo not given)	180 °C
CC(C)c1ccc(C(=O)N2CCOCC2)cc1N	112 to 115 °C
CONC(=O)c1ccc(-c2ccc3nnn(Cc4ccc5ncccc5c4)c3n2)cc1F	197 to 199 °C
c1ccc(N2CCOCC2)c(N=C2CCCCN2)c1	89 to 90 °C
Nc1ccnc(/C=C/c2ccccc2)c1	164 to 165 °C
COc1ccc(/C=C2\C3=C(CCCC3)CCN2C(C)=O)cc1	74.5 to 76 °C

Structure (SMILES)	melting point
CCCCCCCN(C[C@H]1CCCC[C@H]1CN(CCCCCCC)C(=O)Nc1ccc(N(C)C)cc1)C(=O)Nc1ccc(N(C)C)cc1	135 to 138 °C
O=C(c1ccccc1)c1ccc(C(=O)N2Cc3ccccc3Oc3ccccc32)cc1	103 to 106 °C
CC(C)(C)c1csc(C(C#N)=C(O)c2c(F)cccc2F)n1	207 to 209 °C
Cc1ccccc1CCC(=NO)C(=O)C(F)(F)F	80 to 81 °C
COC(=O)CCCCCCCCCCCO	33.5 to 35 °C
Cc1ccc(C)c(OCCCC(C)(C)C(=O)Nc2ccc3c(c2)OCO3)c1	89 to 90 °C
Clc1cccnc1N1CCN(c2nc3ccc(Br)cc3[nH]2)CC1	207 to 208 °C
COc1ccc(C(=O)O)cc1C1(C)CCCCC1	199 °C
CCOC(Nc1ccccc1)(OCC)c1ccnc(C(=O)c2ccc(C)cc2)c1	95 to 96 °C
C#Cc1ccc2sccc2c1	55 °C
COc1cc(C(=O)C(Br)CCC2CCCCC2)c(OC)cc1C (stereo not given)	75 to 77 °C
COc1nc(Nc2ccc(Cl)cc2[N+](=O)[O-])nc(OC)n1	206 to 208 °C
O=C(O)CCCCCCCCCCCCC(=O)OCc1ccccc1	73.5 to 74 °C
N#Cc1cc(-c2nc3cncnc3s2)ccc1Oc1ccccc1O	255 to 256 °C
CN(C)Cc1cc(C(=O)c2ccc(Cl)s2)cc(C(C)(C)C)c1O	137 to 138 °C
CCN(Cc1cc(Br)ccc1NCc1ccccc1)c1ccc(C(=O)O)nn1	176 °C
NS(=O)(=O)c1ccc(-c2cnn(-c3ccc(F)c(F)c3)c(=O)c2-c2ccc(F)cc2)cc1	177 to 181 °C
COCCOCCOC(=O)C#CC(=O)/C=C/c1ccc(OC)cc1	41 to 42 °C
CCO[PH](=O)Cc1cc(Oc2ccc(C(F)(F)F)cc2Cl)ccc1[N+](=O)[O-] (stereo not given)	106 to 107 °C
CCOC(=O)c1c(-c2ccc(C)cc2)c2ccncc2c(=O)n1C	134 to 136 °C
O=[N+]([O-])c1ccc(-n2nc(CO)c3c2CCCC3)cc1	219 °C
CCc1cc(-c2cccnc2)nn1-c1ccc(NC(=O)c2cc3ccccc3n2C)cc1	178 to 179 °C
